pEC50, pIC50: −log10 of the molar value. The source made the active and inactive calls.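 Rule for the calls: active = compounds giving half or more protection of infected cells from virus-caused growth loss, again on retest; inactive = the rest.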
Test system: CEM cells HIV-1 protection, formazan growth assay
Assay: NCI AIDS Antiviral Assay
Conditions: for pIC50: measured here: growth of uninfected CEM cells
Summary of the method: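 CEM (human) cells, HIV-1 infected vs uninfected, 5-point dosing, formazan growth read-out. Retest threshold 50% protection.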

Row | Compound | pEC50 | pIC50 | outcome
1 | CC(C)(C)c1ccc(SS(=O)(=O)c2ccc(C(C)(C)C)cc2)cc1 | 4.70 | 4.64 | 
2 | CN(C)N=Nc1ccc(/C=C2/C=Cc3ccccc32)cc1 | < 4.31 | < 4.31 | 
3 | Sc1ccc2ccccc2c1CN1CCOCC1 | < 4.06 | 4.49 | 
4 | CCN=C(N)Nc1ccccc1 | < 3.70 | 3.88 | 
5 | CC1(C)CNC[C@]2(C)OCCCO[C@@]3(C)CNCC(C)(C)NC(=O)[C@](C)(CNCC(C)(C)NC3=O)OCCCO[C@](C)(CNCC(C)(C)NC2=O)C(=O)N1 | < 3.70 | < 3.70 | 
6 | CCCN(CCC)C(=O)c1c([N+](=O)[O-])cc(C(F)(F)F)cc1[N+](=O)[O-] |  |  | inactive
7 | Cn1c(=O)cc(Nc2ccc(N)cc2)[nH]c1=O | < 3.70 | < 3.70 | 
8 | O=c1[nH]cc(NS(=O)(=O)O)c(=O)[nH]1 | < 3.70 | < 3.70 | 
9 | CN1CCCNCCN(CCc2ccccn2)CCCN(C)CC1 | < 3.88 | < 3.88 | 
10 | CCCc1ccc(N=Cc2cc(OC)c(OC)c(OC)c2)cc1 | < 4.50 | < 4.50 | 
11 | CC1C=C(Sc2ccccc2)C(=O)O1 (centres undefined) | < 3.33 | 4.60 | 
12 | Cc1nc(-c2cccnc2)sc1C(=O)/C=C/c1cccc([N+](=O)[O-])c1 | < 4.13 | < 4.13 | 
13 | COc1ccc(C(=O)Sc2ccccc2C(=O)Nc2ccc(S(=O)(=O)NC(C)=O)cc2)cc1 | 4.65 | < 4.00 | 
14 | CN(C)S(=O)(=O)C(c1ccccc1)C1(O)CCCCC1 (centres undefined) | < 3.36 | < 3.36 | 
15 | CN(C)C(=S)SSC(=S)SSC(=S)N(C)C | < 5.70 | 6.19 | 
16 | COC1OC(CO)C(O)C(OC(C)=O)C1NC(=O)N(CCCl)N=O (centres undefined) | < 3.17 | 3.38 | 
17 | COc1ccc(C2=CC3CCC2C3)cc1 (centres undefined) |  |  | inactive
18 | COc1cc(/C=C/c2nc(NC(=S)Nc3ccccc3)nnc2C)cc(OC)c1OC | < 3.70 | 4.86 | 

Row | Compound | pEC50 | pIC50 | outcome
19 | COc1cc(OC)c2c(O)c3c(cc2c1)CC(C)(C)CC3=O | < 5.70 | 5.86 | 
20 | c1ccc2c(c1)[nH]c1cnc3c4cccnc4[nH]c3c12 | < 3.87 | 4.90 | 
21 | CN1CC[C@@H](O)C(CNC23CC4CC(CC(C4)C2)C3)C1 (some centres undefined) | < 3.70 | < 3.70 | 
22 | N=c1c2c(C(N)=O)cn(C3OC(CO)C(O)C3O)c2ncn1O (centres undefined) | < 6.70 | 6.72 | 
23 | O=C1NC(O)c2cccc([N+](=O)[O-])c2O1 (centres undefined) | < 3.70 | 4.21 | 
24 | CO[C@@H]1C[C@H]2[C@@H]3CC[C@H]([C@@H](C)CO)[C@@]3(C)CC[C@@H]2[C@@]2(C)CC[C@H]3C[C@]312 | < 3.70 | 3.99 | 
25 | CC(=O)O[C@@H]1[C@H](OC2CCCCC2(c2ccccc2)c2ccccc2)O[N+]([O-])=CC12CCCCC2 (some centres undefined) | < 3.70 | 5.57 | 
26 | Cc1ccc(S(=O)(=O)Nn2c3c(cc(C#N)c2=O)CCCCC3)cc1 | < 3.70 | < 3.70 | 
27 | CCc1oc2ccccc2c1C(=O)c1cc(Br)c(O)c(Br)c1 | < 3.70 | 4.46 | 
28 | Cc1c2ccccc2c(CSC(=N)N)c2ccccc12 | < 3.70 | 6.95 | 
29 | COc1cc(-c2cc(=O)c3c(O)cc(O)cc3o2)cc(OC)c1OC | < 4.19 | < 4.19 | 
30 | C[n+]1ccc(Nc2ccc(O)cc2)c2ccc(Cl)cc21 | < 3.22 | 4.96 | 
31 | COc1cc2c(cc1OC)C(Cl)C(c1cc(OC)c(OC)c(OC)c1)=C2Cl (centres undefined) |  |  | inactive
32 | Cc1cc(S(=O)(=O)N2CCNNC2=O)c(S)cc1Cl | 4.56 | 4.30 | 
33 | Cc1cc(S(=O)(=O)Nc2nnc3cnc4ccccc4n23)c(S)cc1Cl | 4.05 | 3.47 | 
34 | OCC1OC2NC(=S)OC2C1O (centres undefined) | < 3.70 | < 3.70 | 
35 | C(=Nc1ccc(SSc2ccc(N=Cc3ccccc3)cc2)cc1)c1ccccc1 | < 3.70 | 4.48 | 
36 | Cc1cn(C2CC(C/C=[N+](\[O-])CC3OC(n4cc(C)c(=O)[nH]c4=O)CC3O[Si](C)(C)C(C)(C)C)C(CO[Si](C)(C)C(C)(C)C)O2)c(=O)[nH]c1=O (centres undefined) | < 3.70 | 4.44 | 

Source: PubChem BioAssay AID179 (DTP/NCI, 2004)
